This is an account of results in article PMC7892644 (Cancer discovery, 2020).

Where two headings read alike, the source gives them in different places. Some results are limits rather than exact numbers.

For assay [1], the system named is recombinant SOS1 and recombinant KRAS G12D. In words: AlphaScreen protein-protein interaction assay, SOS1 and KRAS G12D. The assay is classed as binding. The following applies: KRAS-GDP, result in words. (In general: In Alpha technology, singlet oxygen from a donor bead excites a nearby acceptor bead.)
For assay [2], the system named is recombinant SOS1 and recombinant KRAS G12C. The assay can be described thus: AlphaScreen protein-protein interaction assay, SOS1 and KRAS G12C. The assay is classed as binding. The following applies: KRAS-GDP, result in words.
Assay [3] has as its system panel of 24 cell lines, including 18 KRAS-mutated cell lines. The assay can be described thus: 2D proliferation assays across a panel of 24 cell lines. The assay is classed as cell-based.
Assay [4] relates to KRAS G12C-mutated MIA PaCa-2 xenografts. The following applies: 12 or 50 mg/kg twice daily; p<0.005 vs vehicle control.
Assay [5] deals with NCI-H520 cells (KRAS wild-type). The assay can be described thus: 3D proliferation assay, NCI-H520. The assay is classed as cell-based.
Assay [6] concerns A375 cells (KRAS wild-type, BRAF V600E). In words: 3D proliferation assay, A375. The assay is classed as cell-based.
Assay [7] concerns retinal pigment epithelial cells. The assay can be described thus: Proliferation of retinal pigment epithelial cells. The assay is classed as cell-based. The following applies: Epithelial cell, read-out: IC50, proliferation.
Assay [8] relates to KRAS Q61K mutant pancreatic PDX model. In words: KRAS Q61K mutant pancreatic PDX model efficacy. The assay is classed as in vivo, mice. Particulars: BI-3406 50 mg/kg bid, trametinib 0.1 mg/kg bid, 5 days on/2 days off.
Assay [9] has as its system pERK levels in A375 melanoma cells (KRAS wild-type, BRAF V600E). In words: pERK inhibition in A375 cells. The assay is classed as cell-based. Particulars: A375, 1 hour, 2D.
The test system of assay [10] is pERK levels in isogenic NCI-H23 cell lines. The assay can be described thus: pERK levels in isogenic NCI-H23 cell lines.
Assay [11] has as its system panel of 24 cell lines, including 18 KRAS-mutated cell lines. The assay can be described thus: 3D proliferation assays across a panel of 24 cell lines. Format: cell-based. The following applies: for IC50: read-out: IC50, 3D proliferation.
The subject of assay [12] is primary smooth muscle cells. The assay can be described thus: Proliferation of primary smooth muscle cells. The assay is classed as cell-based. The following applies: read-out: IC50, proliferation.
The test system of a further assay is foreskin fibroblasts. In words: cells. Particulars: Fibroblast, read-out: IC50, proliferation.

As for `C=CC(=O)N1CCN(c2ncnc3c(F)c(-c4c(O)cccc4F)c(Cl)cc23)CC1` [ARS-1620], the “inhibition of SOS1 interaction with KRAS G12D” value in [1] is listed as “no effect”. The “inhibition of SOS1 interaction with KRAS G12C” value in [2] is reported as “able to interfere”.

In the case of `CNCc1ccccc1-c1csc([C@@H](C)Nc2nc(C)nc3cc(OC)c(OC)cc23)c1` [BAY293], in [3], the “activity in 2D proliferation assays” value was “no activity”.

For the compound `COc1cc2nc(C)nc(N[C@H](C)c3cc(N)cc(C(F)(F)F)c3)c2cc1O[C@H]1CCOC1` [BI-3406], the tumor growth inhibition entry in assay [4] is given as “prolonged dose-dependent tumor growth inhibition”. For the same compound, the “effect on 3D growth” value in assay [5] and in [6] was “not appreciably affected” in each case. Also, the results for the IC50 in assay [7], in assay [11] and in assay [12] were more than 5000 nM, 9 to 220 nM and more than 5000 nM, respectively. The antitumor efficacy result in assay [8] is on record as “only weak efficacy”. Also, the pERK modulation entry in assay [9] is “No pERK modulation”. Also, the “modulation of pERK” value in assay [10] (NCI-H23 cells carrying the G12R variant) was “No modulation”. The “inhibition of pERK levels” value in assay [10] (NCI-H23 cells carrying the Q61H oncogenic variant) is “weak inhibition”. The “reduction of pERK levels” value in [10] (all KRAS variant isogenic NCI-H23 cell lines, independent of zygosity) is listed as approximately 50%. In addition, the “activity in 2D proliferation assays” value in assay [3] is given as “no activity”.

As for `CC1(N)CCN(c2cnc(-c3cccc(Cl)c3Cl)c(N)n2)CC1` [SHP099], the “effect in 3D proliferation” value in assay [11] (Q61L/H and G12R KRAS mutant tumor cells) is “no effects were detectable”. Moreover, the IC50 lay within 167 to 790 nM in assay [11] (KRAS G12C, a subset of G12D cell lines, and one G12S cell line); 1180 to 4410 nM in assay [11] (KRAS G13D and G12V cells). The “activity in 2D proliferation assays” value in assay [3] is “no activity”.

For the compound `Cc1[nH]c2ccccc2c1CCNCc1ccc(/C=C/C(=O)NO)cc1` [panobinostat], the “effect on 3D growth” value in assay [5] and in assay [6] was “responded” in each case.

Turning to `CC(=O)Nc1cccc(-n2c(=O)n(C3CC3)c(=O)c3c(Nc4ccc(I)cc4F)n(C)c(=O)c(C)c32)c1` [trametinib], the IC50 with foreskin fibroblasts was 85 nM; in [7], 12 nM; in assay [12] it was 843 nM.
